Measured values reported in patent US20230129485A1, “SYSTEM AND METHOD FOR DETERMINING MATERIAL PROPERTIES OF MOLECULAR SYSTEMS FROM AN AB-INITIO PARAMETERIZED FORCE-FIELD” (InterX, Inc., priority 2021, published 2023).
Read-outs that look alike come from different tables or passages of the source.

Assays:
[1] = Free energy of hydration by Polarizable Continuum Model (PCM); details: absolute error vs Exp (hydration)
Experimental: (§1) Due to unavailability of free energy data for the original COSMO model, the free energies of solvation for the molecule dataset are calculated using MolPro ver. […] The comparisons to other implicit solvent models such as SMD, PCM and COSMO-RS are limited to the overlap of the molecules computed using QM-parameterized force field model. The free energies of hydration as predicted by these implicit solvent models (SMD, PCM) were received.

[2] = Table 3; free energy of hydration, experimental; cited from earlier work
[3] = Free energy of hydration by COSMO implicit solvent model (MolPro ver. 2012); details: absolute error vs Exp (hydration)
Experimental: as §1

[4] = implicit solvent model, values received; cited from earlier work
[5] = Table 3; free energy of solvation in cyclohexane, experimental; cited from earlier work
[6] = Table 3; CHEX/H2O partition coefficient, experimental; cited from earlier work
[7] = implicit solvent model, values received; cited from earlier work; remark: listed apart in the source
[8] = Free energy of hydration predicted with the QM-parameterized force field model (ARROW FF), classical MD and PIMD simulation in a water box; details: for water Arrow MD Error / water Arrow PIMD8 Error: Table 3; for water Arrow MD Error: absolute error of MD hydration free energy vs experiment; for water Arrow PIMD8 Error: absolute error of PIMD8 hydration free energy vs experiment; for Arrow PIMD8 Error: absolute error vs Exp (hydration)
Source text: For example, the example QM-parameterized force-field molecular simulation process 400 can use Bennett Acceptance Ratio (BAR) to compute the free energy of hydration/solvation of the molecule in water or any other solvent. In some implementations, the analysis of the molecular dynamics simulations includes analysis, predication, and visualization of ensemble properties of atoms/molecules from atomic and molecular trajectories using the optimized parameters of the QM-parameterized force field model (i.e., the quantum mechanics rule-based reasoning technique) and the QM-parameterized force field model.
In some simulations of the QM-parameterized force field molecular simulation process, the molecules were placed in a water or cyclohexane box of size 32×32×32 Å3. Particle-Mesh Ewald (PME) algorithm was used to compute the electrostatic interactions. A 32×32×32 grid mesh and 5th power spline interpolation order can be used to compute the inverse PME sum. 9 Å cutoffs were used to compute the direct PME sum as well as the exchange and dispersion interactions. Bulk corrections were applied to account for distance cut-off of dispersion interactions. Solvation free energies were computed by decoupling the interactions between the solute and the solvent molecules. Electrostatic, exchange-repulsion and dispersion interactions were switched off simultaneously using a lambda-dependent scaling (a scaling factor power=2 was used) and a soft-coring algorithm (maximal soft-coring radius=1.5 Å, soft-coring radius scaling factor power=1). 15 lambda points unequally spaced (X=0, 0.05, 0.1, 0.2, 0.3, 0.4, 0.5, 0.6, 0.7, 0.75, 0.8, 0.85, 0.9, 0.95, 1.0) were used to decouple the solute-solvent intermolecular interactions.
In some simulations of the QM-parameterized force field molecular simulation process, energy minimization (10,000 steps) using the steepest descent algorithm was initially performed on all the simulation systems. This was followed by a 50 ps equilibration and 1 ns production runs in the isothermal-isobaric ensemble (NPT). […] Pressure was maintained at 1 atm using a MTTK barostat (relaxation time=5 ps). A Multiple Time Step (MTS) algorithm was used to integrate the equations of motion both for the classical and path-integral runs. […] The calculations were performed using the QM-parameterized force field model.
Using the QM-parameterized force field model, the QM-parameterized force field device can compute or predict the solvation free energies using both the Bennett acceptance ratio (BAR) and thermodynamic integration (TI) method with <dH/dλ> values interpolated by cubic splines. […] FIG. 7A illustrates a <dH/dλ> dependence for desolvation of Anthracene in water. FIG. 7B illustrates accumulated statistical errors for TI calculations of AG desolvation of Anthracene in water.

[9] = CHEX/H2O partition coefficient (log D) predicted with the QM-parameterized force field model (ARROW FF)
Source text: In some simulations, the example QM-parameterized force-field molecular simulation process includes using the functional form of the bonded interactions, with force constants and equilibrium values fitted to QM energies at the MP2/aug-cc-pVTZ level of theory. In some simulations, solvents of water and cyclohexane are selected. Cyclohexane (CHEX) is nonpolar and equilibrates relatively quickly. Reliable experimental data for both CHEX solvation free energies, as well as for the CHEX/H2O partition coefficients are used in these simulations.
In some example simulations, solutes containing neutral chemical functional groups, for example carboxylic acids, alkanes, alkenes, aromatics, aldehydes, ketones, alcohols, amides, esters, thiols, sulfides, disulfides and heterocycles, are used. The simulations were performed independently by four groups using their own respective computational resources and architectures, and then averaged. FIGS. 9A-9C show solvation and hydration free energies predictions of various solutes, using the QM-parameterized force field model, in some embodiments.
The straight line is a line of agreement between experimental and simulated/predicted values, and the gray bar is the range or chemical accuracy. […] The molecules here are a subset of those in a) because only those with experimental values for CHEX solvation can be included.

[10] = Free energy of hydration by Solvation Model Dielectric (SMD) implicit solvent model; details: absolute error vs Exp (hydration)
Experimental: as §1

[11] = Free energy of hydration by COSMO-RS
Experimental: as §1

[12] = Table 3, absolute error of MD log D vs experiment
[13] = Table 3, absolute error of PIMD log D vs experiment

CCCS [Propanethiol]
PCM Error [1]: 1.15 kcal/mol | water Exp (hydration) [2]: -1.05 kcal/mol | COSMO/Molpro Error [3]: 2.88 kcal/mol | PCM free energy of hydration [4]: -2.20 kcal/mol | CHEX Exp (solvation) [5]: -3.12 kcal/mol | Exp (log D) [6]: 1.52 | SMD free energy of hydration [7]: -0.90 kcal/mol | water Arrow MD Error [8]: 0.81 kcal/mol | water Arrow PIMD8 Error [8]: 0.40 kcal/mol | Arrow PIMD8 Error [8]: 0.40 kcal/mol | log D Arrow MD Error [9, 12]: 0.38 | log D Arrow PIMD Error [9, 13]: 0.36 | SMD Error [10]: 0.15 kcal/mol

CCCC=O [buytyraldehyde]
COSMO-RS error [11]: 0.07 kcal/mol | PCM Error [1]: 0.52 kcal/mol | water Exp (hydration) [2]: -3.18 kcal/mol | COSMO/Molpro Error [3]: 4.47 kcal/mol | PCM free energy of hydration [4]: -3.70 kcal/mol | SMD free energy of hydration [7]: -3.00 kcal/mol | water Arrow MD Error [8]: 0.61 kcal/mol | water Arrow PIMD8 Error [8]: 0.07 kcal/mol | Arrow PIMD8 Error [8]: 0.07 kcal/mol | SMD Error [10]: 0.18 kcal/mol

CCCCCC [Hexane]
COSMO-RS error [11]: 0.06 kcal/mol | PCM Error [1]: 2.71 kcal/mol | water Exp (hydration) [2]: 2.51 kcal/mol | COSMO/Molpro Error [3]: 3.37 kcal/mol | PCM free energy of hydration [4]: -0.20 kcal/mol | SMD free energy of hydration [7]: 2.40 kcal/mol | water Arrow MD Error [8]: 0.94 kcal/mol | water Arrow PIMD8 Error [8]: 0.06 kcal/mol | Arrow PIMD8 Error [8]: 0.06 kcal/mol | SMD Error [10]: 0.11 kcal/mol

C=CC [Propene]
COSMO-RS error [11]: 0.32 kcal/mol | PCM Error [1]: 2.12 kcal/mol | water Exp (hydration) [2]: 1.32 kcal/mol | COSMO/Molpro Error [3]: 3.00 kcal/mol | PCM free energy of hydration [4]: -0.80 kcal/mol | SMD free energy of hydration [7]: 1.20 kcal/mol | water Arrow MD Error [8]: 0.48 kcal/mol | water Arrow PIMD8 Error [8]: 0.05 kcal/mol | Arrow PIMD8 Error [8]: 0.05 kcal/mol | SMD Error [10]: 0.12 kcal/mol

C=CC=C [Buta-13-diene]
COSMO-RS error [11]: 0.47 kcal/mol | PCM Error [1]: 1.91 kcal/mol | water Exp (hydration) [2]: 0.61 kcal/mol | COSMO/Molpro Error [3]: 3.28 kcal/mol | PCM free energy of hydration [4]: -1.30 kcal/mol | SMD free energy of hydration [7]: 0.90 kcal/mol | water Arrow MD Error [8]: 0.31 kcal/mol | water Arrow PIMD8 Error [8]: 0.35 kcal/mol | Arrow PIMD8 Error [8]: 0.35 kcal/mol | SMD Error [10]: 0.29 kcal/mol

c1ccc2ccccc2c1 [Napthalene]
COSMO-RS error [11]: 0.23 kcal/mol | PCM Error [1]: 0.10 kcal/mol | water Exp (hydration) [2]: -2.40 kcal/mol | COSMO/Molpro Error [3]: 2.11 kcal/mol | PCM free energy of hydration [4]: -2.30 kcal/mol | CHEX Exp (solvation) [5]: -7.17 kcal/mol | Exp (log D) [6]: 3.50 | SMD free energy of hydration [7]: -1.50 kcal/mol | water Arrow MD Error [8]: 0.74 kcal/mol | water Arrow PIMD8 Error [8]: 0.24 kcal/mol | Arrow PIMD8 Error [8]: 0.24 kcal/mol | log D Arrow MD Error [9, 12]: 0.19 | log D Arrow PIMD Error [9, 13]: 0.01 | SMD Error [10]: 0.90 kcal/mol

C=C [Ethene]
COSMO-RS error [11]: 0.55 kcal/mol | PCM Error [1]: 2.08 kcal/mol | water Exp (hydration) [2]: 1.28 kcal/mol | COSMO/Molpro Error [3]: 2.95 kcal/mol | PCM free energy of hydration [4]: -0.80 kcal/mol | SMD free energy of hydration [7]: 1.40 kcal/mol | water Arrow MD Error [8]: 0.29 kcal/mol | water Arrow PIMD8 Error [8]: 0.19 kcal/mol | Arrow PIMD8 Error [8]: 0.19 kcal/mol | SMD Error [10]: 0.12 kcal/mol

C=CCCC [pent-1-ene]
COSMO-RS error [11]: 0.56 kcal/mol | PCM Error [1]: 2.48 kcal/mol | water Exp (hydration) [2]: 1.68 kcal/mol | COSMO/Molpro Error [3]: 3.57 kcal/mol | PCM free energy of hydration [4]: -0.80 kcal/mol | SMD free energy of hydration [7]: 1.40 kcal/mol | water Arrow MD Error [8]: 0.59 kcal/mol | water Arrow PIMD8 Error [8]: 0.25 kcal/mol | Arrow PIMD8 Error [8]: 0.25 kcal/mol | SMD Error [10]: 0.28 kcal/mol

c1ccc2cc3ccccc3cc2c1 [Anthracene]
COSMO-RS error [11]: 0.17 kcal/mol | PCM Error [1]: 1.05 kcal/mol | water Exp (hydration) [2]: -3.95 kcal/mol | COSMO/Molpro Error [3]: 1.77 kcal/mol | PCM free energy of hydration [4]: -2.90 kcal/mol | SMD free energy of hydration [7]: -2.20 kcal/mol | estimated statistical error of computed free energy of solvation ([8]; 1 ns trajectory, TI, FIG. 7B, in water): about 0.2 kcal/mol | water Arrow MD Error [8]: 0.32 kcal/mol | water Arrow PIMD8 Error [8]: 0.07 kcal/mol | Arrow PIMD8 Error [8]: 0.07 kcal/mol | SMD Error [10]: 1.75 kcal/mol

CCCCC [Pentane]
Exp (log D) [6]: 4.28 | log D Arrow MD Error [9]: 0.39 | log D Arrow PIMD Error [9]: 0.17

CCC(C)=O [2-Butanone]
COSMO-RS error [11]: 0.17 kcal/mol | PCM Error [1]: 0.19 kcal/mol | COSMO/Molpro Error [3]: 4.15 kcal/mol | CHEX Exp (solvation) [5]: -3.47 kcal/mol | Exp (log D) [6]: −0.18 | water Arrow MD Error [8]: 0.43 kcal/mol | water Arrow PIMD8 Error [8]: 0.16 kcal/mol | Arrow PIMD8 Error [8]: 0.16 kcal/mol | log D Arrow MD Error [9, 12]: 0.11 | log D Arrow PIMD Error [9, 13]: 0.21 | SMD Error [10]: 0.09 kcal/mol
